Source: patent US5254686A, “Procaine double salt complexes” (priority 1992, dated 1993)
Counter-ions that a name gives are not always drawn.

What was measured:
[1] = unlike other mental stimulants such as amphetamines; cited from earlier work
[2] = solubility in water and ethanol; assay type: physicochemical
Procedure: To 50 mls. of boiling water was added 27.2 grams (0.1 mole) of procaine HCl with stirring until completely dissolved. With stirring was added 12.3 grams (0.1 mole) of nicotinic acid. This mixture was heated at the boiling point until clear. The solution was allowed to cool and a white crystalline precipitate formed which was separated in a Buchner funnel and washed twice with […] of cold distilled water. […] In contrast, a 1:1 molar mixture of procaine HCl and nicotinic acid melts at 145°-150° C.
Into a hot solution of 50 mls of ethanol and 30 mls of water was dissolved 2.72 grams (0.01 mole) of procaine HCl. To this was added 2.44 grams (0.01 mole) of biotin and heat was maintained until the ingredients reacted and the solution cleared. On cooling, crystallization took place easily. White crystalline platelets were filtered, washed and dried.

[3] = hydrochloride salt form; cited from earlier work
plasma cholinesterase = conditions: once absorbed; into PABA and DEAE; cited from earlier work
[4] = 1.3-6.5 moles of caffeine per mole of procaine, aqueous solutions; cited from earlier work

CCN(CC)CCO [DEAE, diethylaminoethanol]
adverse side effects [1]: no adverse side effects such as depression

CCN(CC)CCOC(=O)c1ccc(N)cc1 [II, 1:1 Complex of Procaine HCl and Nicotinic Acid]
solubility in water and 95% ethanol ([2]; water and 95% ethanol): moderately soluble

CCN(CC)CCOC(=O)c1ccc(N)cc1 [IV, 1:1 Complex of Procaine HCl and Biotin]
solubility in water and ethanol ([2]; water and ethanol): partly soluble

CCN(CC)CCOC(=O)c1ccc(N)cc1 [Procaine hydrochloride, procaine hydrochloride]
solubility in water [3]: soluble in water
hydrolysis by plasma cholinesterase (plasma cholinesterase): rapidly hydrolyzed

Cn1c(=O)c2c(ncn2C)n(C)c1=O [caffeine]
inhibition of procaine hydrolysis [4]: shown to inhibit procaine hydrolysis
